# Test results as given in patent US7230033B2, “Pest control compositions and methods for their use” (United States of America as represented by the Secretary of …, priority 2000, dated 2007).
# How the values were obtained:
# [1] = system: nymphal Ixodes scapularis; experiment: Treated-vial biocidal screening with 2% acetone solutions (Example 2), tick nymphs; format: in vivo; details: treated vials sat 72 h; arthropods added for the final 24 h
# Procedure: (§1) Samples of the compounds listed below were obtained as described in Example 1, and screened for biocidal activities against nymphal Ixodes scapularis. In this example, 2% acetone solutions (wt/vol) of the compounds were applied to inner surfaces of 2-dram friction cap vials. Vials and caps were treated then allowed to dry for a minimum of 4 hours before placing 10 nymphs in each container. These same vials were used to challenge additional nymphs and adult I. scapularis ticks and adult Xenopsylla cheopis fleas through five weeks to observe any possible residual activity.
# (§2) Numbers in parentheses refer to length of treatment in terms of hours (h) or weeks (wk). Data is presented in terms of number killed/number tested. For test periods longer than 24 hours, the treated vials were allowed to sit for the stated period after drying (72 h, 4 wk, or 5 wk) and each group of arthropods was added to the vials for the final 24 h of the test period.
# [2] = system: adult I. scapularis ticks; experiment: Treated-vial biocidal screening with 2% acetone solutions (Example 2), adult ticks, residual; format: in vivo, Ixodes scapularis; details: treated vials sat 4 wk; arthropods added for the final 24 h
# Procedure: as §1, §2
# Aedes aegypti = experiment: Mosquito susceptibility, serial dilutions (Example 8); details: in vivo
# [3] = system: fourth-instar Aedes aegypti larvae; experiment: Larval mosquito bioassay; format: in vivo; details: Aedes aegypti larval mosquitoes; concentration of the 1 ml added to 150 ml water
# Procedure: Individual groups of 10 fourth-instar Aedes aegypti larvae were contained in 150 ml of water and exposed to […] of essential oils prepared by 2-fold serial dilutions ranging from 0.06%–5.0% in 1 ml of acetone. A control group of larvae were exposed to 1 ml of acetone only.
# It is important to note that larval mosquitoes are tested in their natural environment, i.e., in water. The particular assays used herein involved groups of 10 larval mosquitoes in 150 ml of water. The weight percentages reported for lethal concentration for larval mosquitoes are the weight percentages added to the 150 ml water (as opposed to the final percentage of the tested compound(s) in the 150 ml water). As one of skill in the art will appreciate, test compound(s) added to a volume of water (such as, 150 ml) can be dramatically diluted depending upon the water solubility of the tested compound. […] If the tested compound is an oil (such as, carvacrol, nootkatone, or 13-hydroxy-valencene), it most likely floats on the surface of the water.
# Ae. aegypti adults = experiment: Adult mosquito bottle bioassay; format: in vivo, Aedes aegypti
# X. cheopis adults = experiment: Flea bioassay, treated 2-dram vials, probit analysis; format: in vivo, Xenopsylla cheopis; details: 24 h exposure
# Aedes aegypti adults = experiment: Residual activity, aged treated bottles, mosquitoes; format: in vivo
# Procedure: Adult mosquitoes were tested using the bottle bioassay method of Brogden and McAllister (J. Am. Mosq. Control Assoc., 14:159–64, 1998) with minor modifications. Natural product extracts were two-fold serially diluted for a total of 8 concentrations ranging from 0.002% to 0.25% in 1.5 ml of acetone. Individual dilutions were added to 250 ml Wheaton glass bottles and capped. Bottles were manipulated to evenly coat all inner surfaces. The caps were removed and bottles were allowed to air-dry overnight. Once bottles were completely dry, 10–50 (in some tests 25–50) adult mosquitoes were aspirated into the bottles. Mosquitoes were held in the bottles for 24 h at 23° C. and 85% RH. Morbidity and mortality were recorded at 15, 30, 45, and 60 min and 24 hour intervals. One bottle for each replicate was treated with acetone only and served as a control. The dose-mortality data was evaluated with probit analysis, using the LdP Line software, to determine LC50 and LC90 values.
# [4] = system: ticks, fleas, formicids and termites; experiment: Persistence of biocidal activity in vials treated with 2% solutions (Example 5); format: in vivo; details: at 11 weeks
# Procedure: as §1
# Persistence of biocidal activity was determined for nootkatone and valencene-11,12-epoxide by using the vials as treated with the 2% solutions of Example 2. This bioassay employed groups of ticks, fleas, formicids and termites using a method similar to that described in Example 2. […] At 11 weeks, the biocidal activity began to dissipate below the 100% mortality level.
# [5] = system: ticks, fleas, and mosquitoes; experiment: Residual activity, general statements (Examples 9, 17); format: in vivo; details: ticks
# Culex p. pipiens = experiment: Mosquito susceptibility, serial dilutions (Example 8); details: in vivo
# [6] = system: Xenopsylla cheopis adults; experiment: Residual activity, aged treated vials, fleas; format: in vivo
# Procedure: Briefly, groups of 10 nymphal I. scapularis and X. cheopis fleas were used in all tests (more than a total of 5,240 nymphs and 4,860 fleas were exposed to the compounds). The inner surface of 2-dram friction cap vials were treated with the compound/acetone solution, or acetone only as a control, and left to air-dry overnight (see also, Panella et al., J. Med. Entomol., 42(3):352-358, 2005. Three to 4 holes were made in the plastic cap to allow for air exchange. Nymphal ticks and adult fleas were then placed directly into the vials using forceps. Vials containing ticks or fleas were placed in desiccators for 24 h at 21° C. and 90% RH. Morbidity and mortality was recorded at 1, 2, 4, 8, and 24 h after initial exposure.
# [7] = Aedes aegypti adult mosquitoes, alone, or 1:1 with carvacrol (in parenthesis)
smiles,measurement,setting,value
"C=C(C)[C@@H]1CCC2=CC(=O)C[C@@H](C)[C@]2(C)C1 [Compound 7, Nootkatone]","I. scapularis nymphs (72 h), number killed/number tested",[1],5/5
same,"I. scapularis adults (4 wk), number killed/number tested",[2],5/5
same,A. aegypti LD50,Aedes aegypti,<4.5 × 10^−3
same,LC50 (1 h),[3],5.327 % (wt:vol)
same,LC50 (24 h),[3],1.605 % (wt:vol)
same,LC90 (1 hr),[3],14.045 % (wt:vol)
same,LC90 (24 h),[3],2.59 % (wt:vol)
same,LC90,"Ae. aegypti adults; 24 h exposure, NE = not effective at concentrations tested","0.0092 percent concentration, wt:vol"
same,Slope,"Ae. aegypti adults; 24 h exposure, probit",6.22
same,LC50 (15 min),Ae. aegypti adults; [7],0.035 % (wt:vol)
same,LC50 (24 h),Ae. aegypti adults; [7],0.0057 % (wt:vol)
same,LC90 (15 min),Ae. aegypti adults; [7],0.119 % (wt:vol)
same,LC90 (24 h),Ae. aegypti adults; [7],0.0092 % (wt:vol)
same,LC50 (15 min),"Ae. aegypti adults; Aedes aegypti adult mosquitoes, alone, or 1:1 with carvacrol (in parenthesis), listed as compound 7",0.035 % (wt:vol)
same,LC90,X. cheopis adults; NE = not effective at concentrations tested,"0.019 percent concentration, wt:vol"
same,Slope,X. cheopis adults; probit,3.527
same,"LC90, residual activity",Aedes aegypti adults; 1 week after treatment,"0.054 percent concentration, wt:vol"
same,"Slope, residual activity",Aedes aegypti adults; 1 week after treatment,3.043
same,"Slope, residual activity",Aedes aegypti adults; 2 weeks after treatment,3.342
same,"LC90, residual activity","Aedes aegypti adults; 2 weeks after treatment, NE = not effective","0.046 percent concentration, wt:vol"
same,"Slope, residual activity",Aedes aegypti adults; 4 weeks after treatment,2.698
same,"LC90, residual activity","Aedes aegypti adults; 4 weeks after treatment, NE = not effective","0.038 percent concentration, wt:vol"
same,mortality level,[4],< 100%
same,residual activity,[5],considerable biological activity through the four week time period
same,C. pipiens. LD50,Culex p. pipiens,<4.5 × 10^−3
same,"Slope, residual activity",[6]; 1 week after treatment,2.546
same,"LC90, residual activity","[6]; 1 week after treatment, NE = not effective","0.05 percent concentration, wt:vol"
same,"Slope, residual activity",[6]; 2 weeks after treatment,2.033
same,"LC50, residual activity",[6]; 4 weeks after treatment,"0.031 percent concentration, wt:vol"
